Measured values published in patent US20110124523A1, “High Throughput Method for Detecting Apoptosis of Embryonic Stages of Metazoan Helminthic Parasites” (INSTITUTE OF LIFE SCIENCES, priority 2009, published 2011).
Where “and” joins values, the source holds several entries; their conditions need not be identical. Equal entries are not always repeated.

System: embryonic stages of S. digitata
Assay: Intra cellular cleavage of caspase substrate PARP, anti cleaved PARP-PE staining
Type: cell-based, Setaria digitata
Conditions: 24 hr
Description: Adult female filarial worms Setaria digitata were collected from the peritoneum of cattle, slaughtered at a nearby abattoir in sterile Hanks Balanced Salt Solution (HBSS) medium (Sigma H 2387-1L) and transported to the laboratory in a sterile container. The medium containing 1% glucose (Sigma G 7528), Penicillin 100 units/ml, Streptomycin 100 μg/ml (Sigma P 4333). And Amphotericin-B 0.25 μg/ml (Sigma A 2942) was buffered with NaHCO3 (Sigma S 5761). About 5 to 7 worms were taken in a petridish, washed three times in medium, dissected into small pieces in 10 ml of medium under sterile conditions and incubated at 37° C. for 30 minutes to allow the release of embryonic stages (eggs and microfilariae) into the medium. The embryonic stages were harvested into sterile 15 ml. centrifuge tubes and washed three times by centrifuging at 300 g for 10 minutes each with medium and the final pellet was suspended in 1 ml. of RPMI-1640 medium (Sigma R 8005) supplemented with 10% FBS (Sigma F 2442) The number of embryonic stages of S. digitata in the above preparation were counted using light microscope, and the suspension was taken in RPMI-1640 medium containing 10% FBS at 1×10^5 embryonic stages/ml. One ml. each was dispensed into individual wells of a 24 well tissue culture plate. One set of wells was taken as untreated control containing only medium with 10% FBS. […] Motility of the Mf was scored under an inverted microscope. After appropriate treatment and incubation, each set of the cultured embryonic stages of S. digitata were harvested from the 24 well tissue culture plate separately in 15 ml. sterile centrifuge tubes, washed with PBS twice and stained as per requirement following manufacturer's instructions as described below. This was followed by two times washing with PBS and final suspension of the stained embryonic stages was taken in 0.5 ml of sheath fluid (BD Biosciences 342003) before their acquisition in the flow cytometer (BD FACS Calibur, Becten and Dickinson, USA). Analysis was performed on 10,000-acquired events depicted as Dot Plots and Histogram Plots using Cellquest Pro soft ware. All plots were representative of at least 3 experiments. The distinctly clustered populations obtained consistently in the Dot plots for the intra uterine embryonic stages of S. digitata (FIG. 1 a) were gated for Mfs (R-1) and eggs (R-2 and R-3) and analyzed for different assays for apoptosis as described below. After in vitro culture for 24 hours with apoptosis inducing reagents the embryonic stages were harvested in 15 ml. sterile centrifuge tubes and fixed for 60 minutes at 0° C. in 1% paraformaldehyde (Sigma P 6148) in PBS. The suspension was washed first with PBS and then with 1× permeabilisation buffer (eBioscience 00-8333-56) and finally resuspended in 100 μl of 1× permeabilisation buffer at 1×10^5 embryonic stages per ml. This suspension was then incubated for 45 minutes with 20 μl of anti cleaved PARP-PE (BD Biosciences 552933). This was followed by washing with PBS twice and analysis by Flow cytometer.

Row | Compound | GMI (Geometric Mean Intensity) of Fluorescence, PARP Cleavage (Eggs, 10 μM) | GMI (Geometric Mean Intensity) of Fluorescence, PARP Cleavage (Microfilariae, 10 μM) | GMI (Geometric Mean Intensity) of Fluorescence, PARP Cleavage (Eggs, 1 μM) | GMI (Geometric Mean Intensity) of Fluorescence, PARP Cleavage (Microfilariae, 1 μM)
1 | OO [H2O2] | 70.72 and 75.32 and 78.52 | 8.39 and 7.99 and 8.02 | – | –
2 | CC1=CC(=O)c2c(O)cccc2C1=O [Plumbagin] | 102.15 and 109.36 and 110.25 | 10.01 and 11.32 and 9.67 | – | –
3 | CN[C@@H]1C[C@H]2O[C@@](C)([C@@H]1OC)n1c3ccccc3c3c4c(c5c6ccccc6n2c5c31)C(=O)NC4 [Staurosporine] | – | – | 63.95 and 66.56 and 70.27 | 6.57 and 6.21 and 5.49
